Experimental data reported in publication PMC12004264 (2025).

How the values were obtained:
[1] = system: MYC (DNA, G4) TGAGGGTGGGTAGGGTGGGTAA; assay: Hoechst 33258 fluorescent displacement; settings: Hoechst 33258 displaced, quenching nearly 35%; tracking lost at higher ligand
[2] = system: MYC (DNA, G4) TGAGGGTGGGTAGGGTGGGTAA; assay: CD melting; settings: K+ (concentration not restated for melting); 8 equiv. ligand; 16 μM
[3] = system: MYC (DNA, G4) TGAGGGTGGGTAGGGTGGGTAA; assay: fluorescence titration, ligand emission, Hill fit; settings: K+ 100 mM, apparent, PBS 20 mM phosphate, pH 6.8, room temperature, ligand 10 μM
[4] = system: ds26 (DNA, duplex) CAATCGGATCGAATTCGATCCGATTG; assay: fluorescence titration, ligand emission, Hill fit; settings: K+ 100 mM, apparent, PBS 20 mM phosphate, pH 6.8, room temperature, ligand 10 μM
[5] = system: KRAS (DNA, G4) AGGGCGGTGTGGGAAGAGGGAAGAGGGGGAGG; assay: fluorescence titration, ligand emission, Hill fit; settings: K+ 100 mM, apparent, PBS 20 mM phosphate, pH 6.8, room temperature, ligand 10 μM
[6] = system: G4 Tel (DNA, G4) AGGGTTAGGGTTAGGGTTAGGG; assay: fluorescence titration, ligand emission, Hill fit; settings: apparent, ligand 10 μM
[7] = system: G4 Tel (DNA, G4) AGGGTTAGGGTTAGGGTTAGGG; assay: CD melting; settings: K+ (concentration not restated for melting); 8 equiv. ligand; 16 μM

binding [1]	ΔTm [2] [°C]	KD ([3]; Hill n 1.33) [µM]	KD ([4]; Hill n 0.98) [µM]	KD ([5]; Hill n 0.97) [µM]	KD ([6]; K+ 100 mM, PBS 20 mM phosphate, pH 6.8, room temperature, Hill n 0.98) [µM]	KD ([6]; Na+ (Tris-NaCl), Tris-NaCl buffer, room temperature, Hill n 0.80, buffer alone quenches 31%) [µM]	ΔTm [7] [°C]	KD ([3]; Hill n 4.68) [µM]	KD ([4]; Hill n 15.27) [µM]	KD ([5]; Hill n 8.07) [µM]	KD ([6]; K+ 100 mM, PBS 20 mM phosphate, pH 6.8, room temperature, Hill n 7.83) [µM]	KD ([6]; Na+ (Tris-NaCl), Tris-NaCl buffer, room temperature, Hill n 4.66, buffer alone quenches 44%) [µM]	Structure (SMILES)
yes	10.7	1.86 ± 0.04	14.95 ± 1.00	9.62 ± 0.70	3.30 ± 0.11	2.08 ± 0.07	0.9						COc1ccc(-c2cc3c(cc2-c2cc[n+](C)cc2)c(=O)c2ccccc2n3C)cc1
	6.2						1.7	10.85 ± 0.30	3.73 ± 0.02	5.51 ± 0.079	2.58 ± 0.03	3.45 ± 0.05	COc1ccc(-c2cc3c(cc2-c2ccncc2)c(=O)c2ccccc2n3C)cc1
